Experiments:
winter wheat [1] = assay: Test E winter wheat; assay type: in vivo, Triticum aestivum; settings: Preemergence
bermuda-grass = assay: Test D bermudagrass; assay type: in vivo, Cynodon dactylon; settings: Preemergence, 0 to 100 scale
How it was run: (§1)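 Each weed species is planted in its own pot or compartment; preemergence doses go on the sandy loam surface within a day. The formulation is a surfactant-containing, non-phytotoxic solvent blend. Ratings come from visual comparison with untreated controls 14 to 21 days later, where 100 means complete control.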

wild oat [2] = assay: Test B pre/postemergence wild oat; assay type: in vivo, Avena fatua
How it was run: (§2)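 Test chemicals in a non-phytotoxic solvent mixture with surfactant were sprayed preemergence onto planted seeds and postemergence onto plants 2 to 18 cm tall (1- to 4-leaf stage). After twelve to sixteen days in a greenhouse, injury was visually rated against untreated controls from 0 (no effect) to 10 (complete control).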

green foxtail = assay: Test E green foxtail; assay type: in vivo, Setaria viridis; settings: Preemergence
winter barley = assay: Test E winter barley; assay type: in vivo, Hordeum vulgare; settings: Preemergence
itchgrass = assay: Test D itchgrass; assay type: in vivo, Rottboellia exaltata; settings: Preemergence, 0 to 100 scale
How it was run: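 Scoring used a 0–100 visual injury scale, with 0 meaning no effect and 100 complete control, assessed 14–21 days after application alongside untreated pots. Preemergence treatments went onto sandy loam surfaces of separately potted seeds within a day of sowing.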

crabgrass = assay: Test B pre/postemergence crabgrass; assay type: in vivo, Digitaria sanguinalis
How it was run: as §2

smallflower flatsedge = assay: Test B flood test smallflower flatsedge; assay type: in vivo, Cyperus difformis
How it was run: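 Plants were grown to the 2-leaf stage before treatment with test chemical, then held in a greenhouse for twelve to sixteen days. Injury was visually rated against untreated controls on a 0–10 scale, where 0 is no effect and 10 is complete control.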

Italian ryegrass = assay: Test E Italian ryegrass; assay type: in vivo, Lolium multiflorum; settings: Preemergence
wild oat [3] = assay: Test E wild oat; assay type: in vivo, Avena fatua; settings: Preemergence
soybean = assay: Test B pre/postemergence soybean; assay type: in vivo, Glycine max
How it was run: as §2

wheat = assay: Test B pre/postemergence wheat; assay type: in vivo, Triticum aestivum
How it was run: as §2

blackgrass = assay: Test E blackgrass; assay type: in vivo, Alopecurus myosuroides; settings: Preemergence
winter wheat [4] = assay: Test E winter wheat; assay type: in vivo, Triticum aestivum; settings: Postemergence; for Plant response rating, Wheat (winter): 0 to 100 scale
How it was run: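 Visually scored herbicidal effect relative to untreated plants, taken ~21 to 28 days post-application; compound in solvent with surfactant; postemergence sprays at the 1- to 4-leaf stage.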

Johnson grass = assay: Test D Johnson grass; assay type: in vivo, Sorghum halepense; settings: Preemergence, 0 to 100 scale
How it was run: as §1

[5] = Rate 62 g/ha, 0 to 100 scale, 0 no effect, 100 complete control
[6] = Rate 125 g/ha, 0 to 100 scale (0 no effect, 100 complete control)
[7] = Rate 500 g/ha, 0 to 100 scale where 0 is no effect and 100 is complete control
[8] = Rate 16 g/ha, 0 no injury, 100 complete control
[9] = Rate 32 g/ha, 0 no injury, 100 complete control
[10] = Rate 64 g/ha, 0 no injury, 100 complete control
[11] = Rate 125 g/ha, 0 no injury, 100 complete control
[12] = Postemergence, Rate 125 g/ha, scale of 0 to 10 where 0 is no effect and 10 is complete control
[13] = Preemergence, Rate 62 g/ha, scale 0 to 10 (0 no effect, 10 complete control)
[14] = Preemergence, Rate 125 g/ha, 0 is no effect, 10 is complete control
[15] = Preemergence, Rate 250 g/ha, scale 0 to 10, 0 is no effect, 10 is complete control
[16] = Preemergence, Rate 500 g/ha, scale 0 to 10 (0 no effect, 10 complete control)
[17] = Rate 62 g/ha, Postemergence, scale of 0 to 10 where 0 is no effect and 10 is complete control
[18] = Rate 250 g/ha, Postemergence, scale 0 to 10, 0 is no effect, 10 is complete control
[19] = Rate 500 g/ha, Postemergence, scale 0 to 10

SMILES: CC(C)N(C(=O)n1oc(=O)n(C(C)C)c1=O)c1ccc(F)cc1 [Compound 131]
- Plant response rating, Wheat (winter) (winter wheat [1]; [5]): 50
- Plant response rating, Wheat (winter) (winter wheat [1]; [6]): 35
- Wheat (winter) plant response rating (0 to 100 scale) (winter wheat [1]; Rate 250 g/ha): 60
- Plant response rating, Wheat (winter) (winter wheat [1]; [7]): 95
- Plant response rating, Bermudagrass (bermuda-grass; [8]): 100
- Plant response rating, Bermudagrass (bermuda-grass; [9]): 100
- Plant response rating, Bermudagrass (bermuda-grass; [10]): 100
- Plant response rating, Bermudagrass (bermuda-grass; [11]): 100
- Plant response rating, Bermudagrass (bermuda-grass; Rate 250 g/ha): 100
- Plant response rating, Bermudagrass (bermuda-grass; Rate 500 g/ha): 100
- Wild oats plant response rating (wild oat [2]; [12]): 3
- Wild oats plant response rating (wild oat [2]; [13]): 10
- Wild oats plant response rating (0 to 10 scale) (wild oat [2]; [14]): 10
- Wild oats plant response rating (wild oat [2]; [15]): 10
- Wild oats plant response rating (wild oat [2]; [16]): 10
- Wild oats plant response rating (wild oat [2]; [17]): 2
- Plant response rating, Wild oats (wild oat [2]; [18]): 9
- Wild oats plant response rating (wild oat [2]; [19]): 10
- Plant response rating, Green foxtail (green foxtail; [5]): 60
- Plant response rating, Green foxtail (green foxtail; [6]): 100
- Green foxtail plant response rating (0 to 100 scale) (green foxtail; Rate 250 g/ha): 100
- Plant response rating, Barley (winter) (winter barley; [5]): 40
- Plant response rating, Barley (winter) (winter barley; [6]): 65
- Barley (winter) plant response rating (0 to 100 scale) (winter barley; Rate 250 g/ha): 100
- Plant response rating, Barley (winter) (winter barley; [7]): 100
- Plant response rating, Itchgrass (itchgrass; [8]): 30
- Plant response rating, Itchgrass (itchgrass; [9]): 50
- Plant response rating, Itchgrass (itchgrass; [10]): 90
- Plant response rating, Itchgrass (itchgrass; [11]): 90
- Plant response rating, Itchgrass (itchgrass; Rate 250 g/ha): 100
- Plant response rating, Itchgrass (itchgrass; Rate 500 g/ha): 100
- Crabgrass plant response rating (crabgrass; [12]): 7
- Crabgrass plant response rating (crabgrass; [13]): 2
- Crabgrass plant response rating (0 to 10 scale) (crabgrass; [14]): 7
- Crabgrass plant response rating (crabgrass; [15]): 9
- Crabgrass plant response rating (crabgrass; [16]): 10
- Crabgrass plant response rating (crabgrass; [17]): 5
- Plant response rating, Crabgrass (crabgrass; [18]): 8
- Crabgrass plant response rating (crabgrass; [19]): 9
- S. Flatsedge plant response rating (smallflower flatsedge; Rate 62 g/ha, headed Pre-emergence (flood test species), scale 0 to 10 (0 no effect, 10 complete control)): 0
- S. Flatsedge plant response rating (smallflower flatsedge; Rate 125 g/ha, Pre-emergence, flood test species, scale 0 to 10 where 0 is no effect and 10 is complete control): 3
- S. Flatsedge plant response rating (smallflower flatsedge; Rate 250 g/ha, headed Pre-emergence (flood test species), scale 0 to 10 (0 no effect, 10 complete control)): 8
- Plant response rating, S. Flatsedge (smallflower flatsedge; Rate 500 g/ha, headed Pre-emergence (flood test species), scale 0 to 10 (0 no effect, 10 complete control)): 8
- Plant response rating, I. Ryegrass (Italian ryegrass; [5]): 70
- Plant response rating, I. Ryegrass (Italian ryegrass; [6]): 100
- I. Ryegrass plant response rating (0 to 100 scale) (Italian ryegrass; Rate 250 g/ha): 100
- Plant response rating, I. Ryegrass (Italian ryegrass; [7]): 100
- Plant response rating, Wild oat (wild oat [3]; [5]): 50
- Plant response rating, Wild oat (wild oat [3]; [6]): 50
- Wild oat plant response rating (0 to 100 scale) (wild oat [3]; Rate 250 g/ha): 60
- Plant response rating, Wild oat (wild oat [3]; [7]): 100
- Soybean plant response rating (soybean; [12]): 7
- Soybean plant response rating (soybean; [13]): 2
- Soybean plant response rating (0 to 10 scale) (soybean; [14]): 3
- Soybean plant response rating (soybean; [15]): 8
- Soybean plant response rating (soybean; [16]): 8
- Soybean plant response rating (soybean; [17]): 5
- Plant response rating, Soybean (soybean; [18]): 8
- Soybean plant response rating (soybean; [19]): 8
- Wheat plant response rating (wheat; [12]): 3
- Wheat plant response rating (wheat; [13]): 2
- Wheat plant response rating (0 to 10 scale) (wheat; [14]): 8
- Wheat plant response rating (wheat; [15]): 8
- Wheat plant response rating (wheat; [16]): 10
- Wheat plant response rating (wheat; [17]): 3
- Plant response rating, Wheat (wheat; [18]): 5
- Wheat plant response rating (wheat; [19]): 6
- Plant response rating, Blackgrass (blackgrass; [5]): 60
- Plant response rating, Blackgrass (blackgrass; [6]): 50
- Blackgrass plant response rating (0 to 100 scale) (blackgrass; Rate 250 g/ha): 60
- Plant response rating, Blackgrass (blackgrass; [7]): 100
- Plant response rating, Wheat (winter) (winter wheat [4]; Rate 62 g/ha): 50
- Plant response rating, Wheat (winter) (winter wheat [4]; Rate 125 g/ha): 60
- Plant response rating, Wheat (winter) (winter wheat [4]; Rate 500 g/ha, 0 no effect, 100 complete control): 20
- Wheat (winter) plant response rating (winter wheat [4]; Rate 250 g/ha, 0 to 100 scale where 0 is no effect and 100 is complete control): 0
- Plant response rating Johnsongrass (Johnson grass; [8]): 10
- Plant response rating Johnsongrass (Johnson grass; [9]): 40
- Plant response rating Johnsongrass (Johnson grass; [10]): 65
- Plant response rating Johnsongrass (Johnson grass; [11]): 90
- Plant response rating Johnsongrass (Johnson grass; Rate 250 g/ha): 98
- Plant response rating Johnsongrass (Johnson grass; Rate 500 g/ha): 100

Reference: patent US6737383B1, “Herbicidal oxadiazolidines” (priority 1999, dated 2004)
